Results taken from patent US10004718B2, “Erythropoietin expression promoter” (TOHOKU UNIVERSITY, priority 2012, dated 2018).

Legend:
[1] = Plasma concentration in mice after tail vein administration (LC/MS/MS); format: in vivo, mouse
Procedure: Compound #4 was administered alone to the tail veins of 3 mice (C57BL/6N 8 W, male, 21-25 g). 30 minutes, 1 hour, and 6 hours after the administration, each mouse was cervically dislocated, and 500 μl of blood was collected from the heart. Then, an anticoagulant (10 μl of heparin) was added thereto, and the resulting blood was centrifuged (12000 rpm×20 min, 4° C.) to isolate plasma. DMSO (57 μl) was administered alone to the tail veins of mice, which were in turn used as controls.
The plasma concentration of the compound #4 was quantified using LC/MS/MS constituted by TSQ Quantum Ultra (manufactured by Thermo Fisher Scientific Inc.) and NANOSPACE SI-2 (manufactured by Shiseido Co., Ltd.). Conditions for the selected reaction monitoring (SRM) method of the compound #4 or 2-methyl-5-([2-naphthylamino]carbonyl)-3-thienyl)acetic acid used as an internal standard (hereinafter, referred to as an “internal standard compound”) are “m/z 311.1>116.0 (collision energy, CE=24)” and “m/z 324.1>280.0 (CE=14)”. “Xbridge C18 (150 mm×2.1 mm i.d., 3.5 μm particle size)” was selected as an analytical column. […] The compound #4 and the internal standard compound were detected 8.51 and 9.00 minutes, respectively (upper column of FIG. 10). […] The sample (1 μl) was introduced through a filter to LC/MS/MS to quantify the plasma concentration (μg/ml) of the compound #4 (lower column of FIG. 10).

[2] = Erythrocyte production in mice (Hct value and hemoglobin, i-STAT); format: in vivo, mouse; conditions: 1 mg/200 μl of CMC oral, 7 consecutive days, n=3, mean±standard deviation
Procedure: Compound #4 (1 mg) was mixed with 200 μl of CMC (carboxymethylcellulose). This compound #4 mixed solution (1 mg/200 μl of CMC) was orally administered to each mouse (C57BL/6N 8 W, male, 21-25 g) between 15:00 to 18:00 every day using a sonde. This administration was carried out for 7 consecutive days (n=3). Mice orally given CMC were used as controls (n=3).
24 hours after the final administration, each mouse was cervically dislocated, and 500 μl of blood was collected from the heart. Then, an anticoagulant (10 μl of heparin) was added thereto, and the Hct value and the hemoglobin concentration were measured using i-STAT (manufactured by Fuso Pharmaceutical Industries, Ltd.).

[3] = tested on: MCA (middle cerebral artery) occlusion mouse models; assay: Cerebral ischemic injury, MCA occlusion mouse model (TTC staining); format: in vivo; conditions: 40 mg/kg intraperitoneal 4 hours before ischemia, 24 hours after reperfusion, vs DMSO, n=1
Procedure: Two types of compounds (compounds #4 and 35) (40 mg/kg of mouse body weight) were each intraperitoneally administered to a mouse 4 hours before ischemia (n=1). A vehicle (DMSO) was administered to a control (n=1). Anesthesia was induced in each mouse with 4% halothane and oxygen and maintained by the intraperitoneal administration of ketamine (40 mg/kg) and xylazine (4 mg/kg) at 30-minute intervals. After the induction of systemic anesthesia, bifurcation of the common carotid artery was exposed under a microscope. A 6-0 nylon thread having a silicon-coated tip was inserted from the internal carotid artery toward the central side so that its tip reached the anterior communicating artery. The common carotid artery was further ligated to block blood flow into the middle cerebral artery. After the ischemic burden for 30 minutes, the nylon thread was removed so that the ligated common carotid artery was released to induce reperfusion.
24 hours after the reperfusion, each mouse was cervically dislocated and then decapitated to excise the brain. Five coronal sections of the cerebrum having a thickness of 2 mm were prepared from the boundary between the cerebrum and the cerebellum. The coronal sections of the cerebrum were stained with TCC through a reaction at 37° C. for 20 minutes with a TTC solution diluted to 1.5% with PBS. […]

[4] = tested on: human kidney-derived cell line HK-2; assay: Renal protective effect: cisplatin cytotoxicity to HK-2 cells; format: cell-based; conditions: for HK-2 cell death by cisplatin: cisplatin 30 μM
Procedure: The HK-2 cells were seeded at 5×10^3 cells/well to a 96-well cell culture plate and then cultured overnight. Cisplatin and compound #4 were mixed at 30 μM and each concentration (30, 10, 3, 1, 0.3, 0.1, 0.03, 0.01, and 0.003 μM), respectively, into DMEM/F12 common medium. After further culture for 24 hours, conversion to formazan dye by mitochondrial dehydrogenase in live cells was detected by the measurement of absorbance at OD […] using a kit (Cell counting kit-8, manufactured by Dojindo Laboratories) to analyze the ratio of live cells. HK-2 cells cultured in the absence of cisplatin (“Cisplatin-” of FIG. 14) and HK-2 cells cultured in the presence of cisplatin (30 μM) and in the absence of the compound #4 (“Cisplatin+” of FIG. 14) were used as controls.
The cells were cultured in advance for 1 hour with the compound #4 of the present invention having a concentration of 3 μM and then analyzed according to the method described in Example 12.

ISN-1e cells = assay: ATP production in islet of Langerhans-derived ISN-1e cells (insulin secretion); format: cell-based, rat; conditions: compound 0.03 to 10 μM, 3 hours
Procedure: The ISN-1e cells were seeded at 2×10^5 cells/well to a 96-well cell culture plate and then cultured overnight. Compound #4 was mixed at each concentration (10, 3, 1, 0.3, 0.1, and 0.03 μM) into RPMI11640 common medium 2. After further culture for 3 hours, the concentration of ATP produced in the medium was measured using ATP Assay Reagent “of Cells” (manufactured by Toyo B-Net Co., Ltd.) and GloMa 96 Microplate Luminometer (manufactured by Promega K.K.). ISN-1e cells cultured in the absence of the compound (DMSO added [1%]) (“control” of FIG. 16) and ISN-1e cells cultured in the presence of an HIF activator (FG-4592 [10, 3, 1, 0.3, and 0.1 μM]) were used as controls.

O=C(CC(C(=O)O)c1c[nH]c2ccccc12)c1ccc(F)cc1 (stereo not drawn) [compound #4, 4-(4-Fluorophenyl)-2-(1H-indol-3-yl)-4-oxo-butanoic acid]
time after administration up to which the compound is detected in plasma [1]: at least 6 hours
detection in plasma ([1]; 30 minutes after the administration): detected at a high level
Hct value [2]: 47.7±0.816 % PCV
hemoglobin concentration in the mouse blood [2]: 16.2 ± 0.286 g/dL
volume of the cerebral infarction site [3]: decreased
HK-2 cell death by cisplatin ([4]; compound at a concentration around 30 μM): efficiently suppress cell death
HK-2 cell death by cisplatin ([4]; compound at least at a concentration of 1 to 300 μM, 24 hours): significantly suppressed
HK-2 cell death by cisplatin with preincubation compared with no preincubation ([4]; preincubation 1 hour with 3 μM compound): further suppressed
ATP concentration in the ISN-1e cells relative to the control (ISN-1e cells): two or more times relative to the control
